From patent US20070128217A1 (priority 2003, published 2007)

What was measured:
[1] = test system: control sera (pooled serum of ten healthy LUMC hospital workers; commercial negative donor pooled serum from the Dutch bloodbank); format: binding, human; parameters: Binding of Control serum LUMC to linear peptides / Binding of Control serum Blood-bank to linear peptides / Binding of Control serum LUMC to looped peptides / Binding of Control Serum Blood-Bank to Looped peptides / Binding of Control serum LUMC to linear peptides of the protein M of SARS-CoV Urbani / Binding of Control serum Blood-bank to linear peptides of the protein M of SARS-CoV Urbani / Binding of Control serum LUMC to looped peptides of the protein M of SARS-CoV Urbani / Binding of Control Serum Blood-Bank to Looped peptides of the protein M of SARS-CoV Urbani: unit not given here
[2] = test system: rabbit serum obtained by immunizing a rabbit with the SARS-CoV strain Frankfurt 1; format: binding; parameters: Binding of a rabbit serum to linear peptides / Binding of a rabbit serum to looped peptides / Rabbit serum linear peptides / Rabbit serum looped peptides / Binding of a rabbit serum to linear peptides of protein N of SARS-CoV Urbani (Rabbit serum linear peptides) / Binding of a rabbit serum to looped/cyclic peptides of protein N of SARS-CoV Urbani (Rabbit serum looped peptides): unit not given here
[3] = test system: antibodies in sera from SARS patients (sera 1a, 1b, 2, 6, 37, 62, London, SARS-yellow, SARS-green); format: binding, human; parameters: Binding of serum 6 to linear peptides of protein X1 of SARS-CoV Urbani / Binding of serum 37 to linear peptides of protein X1 of SARS-CoV Urbani / Binding of serum 6 to looped/cyclic peptide (PEPSCAN-ELISA) / Binding of serum 37 to looped/cyclic peptide (PEPSCAN-ELISA) / Binding of serum 37 to looped/cyclic peptides of protein X1 of SARS-CoV Urbani / Binding of serum 6 to linear peptides of protein X2 / Binding of serum 37 to linear peptides of protein X2 / Binding of serum 37 to looped/cyclic peptides of protein X2 of SARS-CoV Urbani / Binding of serum 6 to linear peptides of protein M of SARS-CoV Urbani / Binding of serum 37 to linear peptides of protein M of SARS-CoV Urbani / Binding of serum 6 to looped/cyclic peptides of protein M of SARS-CoV Urbani / Binding of serum 37 to looped/cyclic peptides of protein M of SARS-CoV Urbani / Binding of serum 6 to linear peptides of protein X3 of SARS-CoV Urbani / Binding of serum 37 to linear peptides of protein X3 of SARS-CoV Urbani / Binding of serum 37 to looped/cyclic peptides of protein X3 of SARS-CoV Urbani / Binding of serum 6 to linear peptides of protein X4 of SARS-CoV Urbani / Binding of serum 37 to linear peptides of protein X4 of SARS-CoV Urbani / Binding of serum 37 to looped/cyclic peptides of protein X4 of SARS-CoV Urbani / Binding of serum 6 to linear peptides of protein X5 of SARS-CoV Urbani / Binding of serum 37 to linear peptides of protein X5 of SARS-CoV Urbani / Binding of serum 37 to looped/cyclic peptides of protein X5 of SARS-CoV Urbani / Binding of serum 6 to linear peptides of protein N of SARS-CoV Urbani / Binding of serum 37 to linear peptides of protein N of SARS-CoV Urbani / Binding of serum 6 to linear peptide (PEPSCAN-ELISA) / Binding of serum 1a to looped/cyclic peptides of protein N of SARS-CoV Urbani / Binding of serum 1b to looped/cyclic peptides of protein N of SARS-CoV Urbani / Binding of serum 2 to looped/cyclic peptides of protein N of SARS-CoV Urbani / Binding of serum 6 to looped/cyclic peptides of protein N of SARS-CoV Urbani / Binding of serum 37 to looped/cyclic peptides of protein N of SARS-CoV Urbani / Binding of serum 62 to looped/cyclic peptides of protein N of SARS-CoV Urbani / Binding of serum London to looped/cyclic peptides of protein N of SARS-CoV Urbani / Binding of serum SARS-green to looped/cyclic peptides of protein N of SARS-CoV Urbani: unit not given here
[4] = test system: recombinant human anti-SARS-CoV antibody 03-018; format: binding; parameters: Binding of antibody 03-018 to linear peptides of the N protein of SARS-CoV Urbani / Binding of antibody 03-018 to looped/cyclic peptides of the N protein of SARS-CoV Urbani: unit not given here

Row | Sequence | Binding of Control Serum Blood-Bank to Looped peptides [1] | Binding of Control serum Blood-bank to linear peptides [1] | Binding of Control serum LUMC to linear peptides [1] | Binding of Control serum LUMC to looped peptides [1] | Binding of a rabbit serum to linear peptides of protein N of SARS-CoV Urbani (Rabbit serum linear peptides) [2] | Binding of a rabbit serum to looped/cyclic peptides of protein N of SARS-CoV Urbani (Rabbit serum looped peptides) [2] | Binding of serum 1a to linear peptides of protein N of SARS-CoV Urbani [3] | Binding of serum 1a to looped/cyclic peptides of protein N of SARS-CoV Urbani [3] | Binding of serum 1b to linear peptides of protein N of SARS-CoV Urbani [3] | Binding of serum 1b to looped/cyclic peptides of protein N of SARS-CoV Urbani [3] | Binding of serum 2 to linear peptides of protein N of SARS-CoV Urbani [3] | Binding of serum 2 to looped/cyclic peptides of protein N of SARS-CoV Urbani [3] | Binding of serum 6 to linear peptides of protein N of SARS-CoV Urbani [3] | Binding of serum 6 to looped/cyclic peptides of protein N of SARS-CoV Urbani [3] | Binding of serum 37 to linear peptides of protein N of SARS-CoV Urbani [3] | Binding of serum 37 to looped/cyclic peptides of protein N of SARS-CoV Urbani [3] | Binding of serum 62 to linear peptides of protein N of SARS-CoV Urbani [3] | Binding of serum 62 to looped/cyclic peptides of protein N of SARS-CoV Urbani [3] | Binding of serum London to linear peptides of protein N of SARS-CoV Urbani [3] | Binding of serum London to looped/cyclic peptides of protein N of SARS-CoV Urbani [3] | also measured
1 | QHGKEELRFPRGQGV | 0.7 | 0.8 | 0.7 | 0.7 | 0.2 | 0.5 | 0.2 | 0.4 | 0.2 | 0.3 | 0.3 | 0.5 | 0.1 | 0.4 | 0.7 | 0.6 | 0.7 | 0.4 | 0.5 | 0.6 | Binding of serum SARS-green to linear peptides of protein N of SARS-CoV Urbani [3]: 0.4; Binding of serum SARS-green to looped/cyclic peptides of protein N of SARS-CoV Urbani [3]: 0.4; Binding of serum SARS-yellow to linear peptides of protein N of SARS-CoV Urbani [3]: 0.6; Binding of serum SARS-yellow to looped/cyclic peptides of protein N of SARS-CoV Urbani [3]: 0.7; Binding of antibody 03-018 to linear peptides of the N protein of SARS-CoV Urbani [4]: 0.1; Binding of antibody 03-018 to looped/cyclic peptides of the N protein of SARS-CoV Urbani [4]: 0.2
2 | YGANKEGIVWVATEG | 0.7 | 0.6 | 0.6 | 0.7 | 0.1 | 0.5 | 0.3 | 0.4 | 0.1 | 0.3 | 0.2 | 0.5 | 0.2 | 0.3 | 0.8 | 0.8 | 0.7 | 0.7 | 0.4 | 0.4 | Binding of serum SARS-green to linear peptides of protein N of SARS-CoV Urbani [3]: 0.4; Binding of serum SARS-green to looped/cyclic peptides of protein N of SARS-CoV Urbani [3]: 0.4; Binding of serum SARS-yellow to linear peptides of protein N of SARS-CoV Urbani [3]: 0.7; Binding of serum SARS-yellow to looped/cyclic peptides of protein N of SARS-CoV Urbani [3]: 0.7; Binding of antibody 03-018 to linear peptides of the N protein of SARS-CoV Urbani [4]: 0.1; Binding of antibody 03-018 to looped/cyclic peptides of the N protein of SARS-CoV Urbani [4]: 0.2
3 | GARPKQRRPQGLPNN | 0.5 | 0.7 | 0.7 | 0.6 | 0.1 | 0.2 | 0.2 | 0.3 | 0.1 | 0.1 | 0.2 | 0.4 | 0.1 | 0.3 | 0.4 | 0.4 | 0.6 | 0.5 | 0.5 | 0.4 | Binding of serum SARS-green to linear peptides of protein N of SARS-CoV Urbani [3]: 0.3; Binding of serum SARS-green to looped/cyclic peptides of protein N of SARS-CoV Urbani [3]: 0.4; Binding of serum SARS-yellow to linear peptides of protein N of SARS-CoV Urbani [3]: 0.6; Binding of serum SARS-yellow to looped/cyclic peptides of protein N of SARS-CoV Urbani [3]: 0.2; Binding of antibody 03-018 to linear peptides of the N protein of SARS-CoV Urbani [4]: 0.1; Binding of antibody 03-018 to looped/cyclic peptides of the N protein of SARS-CoV Urbani [4]: 0.2
4 | RFPRGQGVPINTNSG | 0.6 | 0.8 | 0.6 | 0.5 | 0.1 | 0.5 | 0.2 | 0.3 | 0.1 | 0.2 | 0.3 | 0.4 | 0.1 | 0.2 | 0.7 | 0.5 | 0.7 | 0.4 | 0.5 | 0.3 | Binding of serum SARS-green to linear peptides of protein N of SARS-CoV Urbani [3]: 0.4; Binding of serum SARS-green to looped/cyclic peptides of protein N of SARS-CoV Urbani [3]: 0.5; Binding of serum SARS-yellow to linear peptides of protein N of SARS-CoV Urbani [3]: 0.6; Binding of serum SARS-yellow to looped/cyclic peptides of protein N of SARS-CoV Urbani [3]: 0.4; Binding of antibody 03-018 to linear peptides of the N protein of SARS-CoV Urbani [4]: 0.1; Binding of antibody 03-018 to looped/cyclic peptides of the N protein of SARS-CoV Urbani [4]: 0.2
